Laboratory results taken from US8816121B2, “GLP-1 receptor stabilizers and modulators” (Receptos, Inc., priority 2010, dated 2014).

Experiments:
GLP-1R [1] = target: T1, GLP-1R (Homo sapiens, UniProt P43220); test: GLP-1 PAM EC20 assay: dosing compound in the presence of fixed GLP-1 (9-36), direct cAMP response; format: cell-based; details: compound dose response in presence of EC20 GLP-1 (9-36); for EC50: GLP-1R CRE-bla CHO-K1 cells; for EC20 GLP-1 (9-36) PAM max cAMP: total cAMP from standard curve
T1 construct: host or cells: CRE-bla CHO-K1
Description: GLP-1 PAM EC20 Assay: Dosing Compound in the Presence of Fixed GLP-1 (9-36)-Direct cAMP Response
GLP-1R CRE-bla CHO-K1 cells were seeded into 384-well white flat bottom plates at 10,000 cells/well/20 μL culture media (same culture media used for PAM shift assay) and incubated for 18 h at 37° C. in 5% CO2. Compound dose response curves (12-point) and a separate 30×EC20 GLP-1 (9-36) stock solution were generated in assay buffer (same assay buffer used for PAM shift assay) in presence of 1.5 mM IBMX and 12.5% DMSO. Cells were washed 1× with assay buffer prior to adding 3 μL of compound dose response curve and 0.5 μL EC20 GLP-1 (9-36) to 12 μL assay buffer and incubated for 30 min at 37° C. Direct detection of cAMP was carried out using DiscoveRx HitHunter cAMP kit according to manufacturer's instructions (substituting 5 μL Antibody portion with 2 μL) and luminescence was read using a SpectraMax M5 plate reader. Luminescence signal was converted to total cAMP using a cAMP standard curve and data was analyzed by non-linear regression to determine the EC50 values for cAMP dose response curves.

GLP-1R [2] = test: Size exclusion chromatography peak shift assay (stability induction on GLP-1R); format: binding; details: relative to apo protein and a positive control; effect on dimer stability
Source text: Generation of GLP-1R Protein Used in the Stability Induction Assay
A synthetic gene for a modified GLP-1R enhanced for expression in insect cells was created using overlap extension PCR to encode the amino acid sequence containing a signal peptide, N-terminal Flag (Sigma) epitope tag, mGLP-1R, GFP and a 10× histidine tag.
This gene product was cloned into the insect cell transfer vector, pFastBac 1 (Invitrogen) for transposition into the baculovirus DNA hosted in the DH10Bac strain E. coli. […] High titer viral stock of the recombinant GLP-1R baculovirus was recovered and used to infect a healthy population of SF9 insect cells for expression under the control of the ^ie1GP64 baculovirus promoter (EMD biosciences).
Recombinant protein was isolated from the membranes of the insect cells by extraction using 1% β-dodecylmaltopyranoside followed by purification using immobilized metal affinity chromatography resin and standard protocols After elution the protein was analyzed by analytical size exclusion chromatography to determine its retention time relative to an unliganded receptor.
Size Exclusion Chromatography Peak Shift Assay—Characterization of Stability Induction for Compounds
The protein's hydrodynamic radius was analyzed on an analytical size exclusion chromatography column (Sepax Zenix SEC-300 250 mm×4.6 mm column) equilibrated with 20 mM Hepes pH 7.5, 500 mM NaCl, 2% v/v glycerol, 0.05% w/v DDM and 0.01% w/v CHS and attached to a Dionex Ultimate HPLC which continuously pumped running buffer at a flow rate of 0.5 mL/min. The HPLC was equipped with an ultraviolet absorption and a fluorescence detector which enabled detection of total protein absorbance and GFP fluorescent emission respectively. The peak profiles of the GLP-1R in the presence of multiple compounds could be determined from impure mixtures using fluorescence detection.
Each tested compound was assayed for its ability to alter the hydrodynamic radius. This change can manifest as either a positive or negative shift in retention time in the peak shift assay. A positive shift represents a decrease in apparent molecular weight of the complex, while a negative shift represents an increase in size. Compounds that result in a negative shift in retention time (i.e. increased size) may do so by destabilizing the receptor or by causing non-specific aggregation. Compounds that result in a positive shift in retention time (i.e. decreased size) may do so either by stabilizing the receptor in a more compact conformation or by disrupting the oligomeric state (e.g. Dimer→monomer transition).
For this assay we reported the relative shift in retention time of each compound with respect to the apo protein (without ligand) and a positive control.

T1 sequence (P43220 24-463): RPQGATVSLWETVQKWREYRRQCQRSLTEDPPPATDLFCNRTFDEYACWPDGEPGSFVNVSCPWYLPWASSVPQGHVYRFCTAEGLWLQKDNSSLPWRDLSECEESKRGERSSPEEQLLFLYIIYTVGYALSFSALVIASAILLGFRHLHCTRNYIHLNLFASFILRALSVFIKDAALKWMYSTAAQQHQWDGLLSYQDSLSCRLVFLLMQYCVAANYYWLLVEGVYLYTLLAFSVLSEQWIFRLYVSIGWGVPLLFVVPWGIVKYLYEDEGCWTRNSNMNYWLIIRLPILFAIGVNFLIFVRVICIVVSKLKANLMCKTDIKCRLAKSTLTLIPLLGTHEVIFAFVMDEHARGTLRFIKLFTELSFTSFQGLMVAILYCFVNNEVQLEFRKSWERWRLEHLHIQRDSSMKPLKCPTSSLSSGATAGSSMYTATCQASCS
T1 sequence (P01275 100-127 partner limits assumed): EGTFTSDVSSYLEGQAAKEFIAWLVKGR

CCCCCCCOc1ccc(C(=O)Oc2ccc(CC(NC(=O)c3ccc(OC)cc3)C(=O)O)cc2OC)cc1 (stereo not shown) [Compound 2, 3-(4-((4-(heptyloxy)benzoyl)oxy)-3-methoxyphenyl)-2-(4-methoxybenzamido)propanoic acid]
EC50 (GLP-1R [1]): > 20 µM | EC20 GLP-1 (9-36) PAM max cAMP (GLP-1R [1]): 0.189 µM

CCCCCCCOc1ccc(C(=O)Oc2ccc(C[C@H](NC(=O)c3ccc(C(C)(C)C)cc3)C(=O)O)cc2)cc1 [Compound 57, (S)-2-(4-(tert-butyl)benzamido)-3-(4-((4-(heptyloxy)benzoyl)oxy)phenyl)propanoic acid]
EC50 (GLP-1R [1]): 3.67 µM | EC20 GLP-1 (9-36) PAM max cAMP (GLP-1R [1]): 0.237 µM

CCCCCCCOc1ccc(C(=O)Oc2ccc(C[C@H](NC(=O)c3ccc(OC)cc3)C(=O)O)cc2)cc1 [Compound 63]
EC50 (GLP-1R [1]): > 10 µM | EC20 GLP-1 (9-36) PAM max cAMP (GLP-1R [1]): 0.072 µM

CCCCCCCOc1ccc(C(=O)Oc2ccc(CC(NC(=O)c3ccc(NC(=O)COCc4ccccc4)cc3)C(=O)O)cc2OC)cc1 (stereo not shown) [Compound 103, 2-(4-(2-(benzyloxy)acetamido)benzamido)-3-(4-((4-(heptyloxy)benzoyl)oxy)-3-methoxyphenyl)propanoic acid]
EC50 (GLP-1R [1]): 5.49 µM | EC20 GLP-1 (9-36) PAM max cAMP (GLP-1R [1]): 0.204 µM

CCCCCCCOc1ccc(C(=O)Oc2ccc(CC(NC(=O)c3ccc(NC(=O)Cc4ccc(OC)cc4)cc3)C(=O)O)cc2OC)cc1 (stereo not shown) [Compound 120, 3-(4-((4-(heptyloxy)benzoyl)oxy)-3-methoxyphenyl)-2-(4-(2-(4-methoxyphenyl)acetamido)benzamido)propanoic acid]
EC50 (GLP-1R [1]): 4.05 µM | EC20 GLP-1 (9-36) PAM max cAMP (GLP-1R [1]): 0.174 µM

CCCCCCCOc1ccc(C(=O)Oc2ccc(C[C@H](NC(=O)c3ccc(NC(=O)Cc4ccc(OC)cc4)cc3)C(=O)O)cc2)cc1 [Compound 178, (S)-3-(4-((4-(heptyloxy)benzoyl)oxy)phenyl)-2-(4-(2-(4-methoxyphenyl)acetamido)benzamido)propanoic acid]
EC50 (GLP-1R [1]): 6.31 µM | EC20 GLP-1 (9-36) PAM max cAMP (GLP-1R [1]): 0.098 µM

CCCCCCCOc1ccc(C(=O)Oc2ccc(C[C@H](NC(=O)c3ccc(NC(=O)COCc4ccccc4)cc3)C(=O)O)cc2)cc1 [Compound 179, (S)-2-(4-(2-(benzyloxy)acetamido)benzamido)-3-(4-((4-(heptyloxy)benzoyl)oxy)phenyl)propanoic acid]
EC50 (GLP-1R [1]): 4.84 µM | EC20 GLP-1 (9-36) PAM max cAMP (GLP-1R [1]): 0.16 µM

CCCCCCCOc1ccc(C(=O)Oc2ccc([C@H](NC(=O)c3ccc(NC(=O)Cc4ccc(OC)cc4)cc3)C(=O)O)cc2)cc1 [Compound 263, (S)-2-(4-((4-(heptyloxy)benzoyl)oxy)phenyl)-2-(4-(2-(4-methoxyphenyl)acetamido)benzamido)acetic acid]
EC50 (GLP-1R [1]): 2.78 µM | EC20 GLP-1 (9-36) PAM max cAMP (GLP-1R [1]): 0.216 µM

COc1cc(CC(NC(=O)c2ccc(NC(=O)C3CCCC3)cc2)C(=O)O)ccc1OC(=O)c1ccccc1 (stereo not shown) [Compound 266]
PEAK SHIFT ASSAY (relative shift in retention time, normalized 0 to 5 positive, −5 to 0 negative) (GLP-1R [2]): 0.88

COc1cc(CC(NC(=O)c2ccc(NC(=O)C3CCCC3)cc2)C(=O)O)ccc1OC(=O)c1ccccc1OC(C)=O (stereo not shown) [Compound 267]
PEAK SHIFT ASSAY (relative shift in retention time, normalized 0 to 5 positive, −5 to 0 negative) (GLP-1R [2]): 0.25

COc1ccc(C(=O)Oc2ccc(CC(NC(=O)c3ccc(NC(=O)C4CCCC4)cc3)C(=O)O)cc2OC)cc1 (stereo not shown) [Compound 268]
PEAK SHIFT ASSAY (relative shift in retention time, normalized 0 to 5 positive, −5 to 0 negative) (GLP-1R [2]): 0.46

COc1cc(CC(NC(=O)c2ccc(NC(=O)C3CCCC3)cc2)C(=O)O)ccc1OC(=O)c1ccc(C#N)cc1 (stereo not shown) [Compound 269]
PEAK SHIFT ASSAY (relative shift in retention time, normalized 0 to 5 positive, −5 to 0 negative) (GLP-1R [2]): 0.34

COc1cc(CC(NC(=O)c2ccc(NC(=O)C3CCCC3)cc2)C(=O)O)ccc1OC(=O)c1ccccc1COC(=O)c1ccccc1 (stereo not shown) [Compound 270]
PEAK SHIFT ASSAY (relative shift in retention time, normalized 0 to 5 positive, −5 to 0 negative) (GLP-1R [2]): 0

CCCN(CCC)S(=O)(=O)c1ccc(C(=O)Oc2ccc(CC(NC(=O)c3ccc(NC(=O)C4CCCC4)cc3)C(=O)O)cc2OC)cc1 (stereo not shown) [Compound 271]
PEAK SHIFT ASSAY (relative shift in retention time, normalized 0 to 5 positive, −5 to 0 negative) (GLP-1R [2]): 0.52

COc1cc(CC(NC(=O)c2ccc(NC(=O)C3CCCC3)cc2)C(=O)O)ccc1OC(=O)c1ccc(NC(=O)C2CCCC2)cc1 (stereo not shown) [Compound 272]
PEAK SHIFT ASSAY (relative shift in retention time, normalized 0 to 5 positive, −5 to 0 negative) (GLP-1R [2]): −1.15

CCCCCCCOc1ccc(C(=O)Oc2ccc(CC(NC(=O)c3ccc(NC(=O)C4CCCC4)cc3)C(=O)O)cc2OC)cc1 (stereo not shown) [Compound 273, 2-(4-(cyclopentanecarboxamido)benzamido)-3-(4-((4-(heptyloxy)benzoyl)oxy)-3-methoxyphenyl)propanoic acid]
PEAK SHIFT ASSAY (relative shift in retention time, normalized 0 to 5 positive, −5 to 0 negative) (GLP-1R [2]): 0.69 | EC50 (GLP-1R [1]): > 10 µM | EC20 GLP-1 (9-36) PAM max cAMP (GLP-1R [1]): 0.027 µM

COc1cc(CC(NC(=O)c2ccc(NC(=O)C3CCCC3)cc2)C(=O)O)ccc1OC(=O)c1ccc(NC(C)=O)cc1 (stereo not shown) [Compound 274, 3-(4-((4-acetamidobenzoyl)oxy)-3-methoxyphenyl)-2-(4-(cyclopentanecarboxamido)benzamido)propanoic acid]
PEAK SHIFT ASSAY (relative shift in retention time, normalized 0 to 5 positive, −5 to 0 negative) (GLP-1R [2]): 0.83

COc1cc(CC(NC(=O)c2ccc(NC(=O)C3CCCC3)cc2)C(=O)O)ccc1OC(=O)c1ccc(-c2ccccc2)cc1 (stereo not shown) [Compound 275]
PEAK SHIFT ASSAY (relative shift in retention time, normalized 0 to 5 positive, −5 to 0 negative) (GLP-1R [2]): 0
